Assay results published in patent publication US10577362B2, “Substituted 2, 4-diamino-quinoline derivatives for use in the treatment of proliferative diseases” (GENOSCIENCE PHARMA, priority 2016, dated 2020).

Experiments:
Type in all cases: cell-based, human
[1] = system: MOLM-14 (acute myeloid leukemia) cell line; assay: CellTiter-Glo luminescent cell viability assay, MOLM-14; settings: Homo sapiens; for viability at 4 µM: MOLM-14, compound at 4 μM; for viability at 4 µM / viability at 10 µM: 72 h; for viability at 10 µM: MOLM-14, compound at 10 μM; for EC50: MOLM-14 cell line, 72 h incubation, CellTiter-Glo, read-out: EC50, growth inhibition of MOLM-14
How it was run: (§1)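 Cells were cultured at 37 °C, 5% CO2 with 10% FBS; adherent lines were plated overnight, suspension MOLM-14 plated 1 h before dosing. Compounds in H2O or DMSO were added at various concentrations for 72 h, and viability was read by luminescence. EC50 is the dose reducing signal to 50% of diluent control.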

[2] = system: A375 (malignant melanoma) cell line; assay: CellTiter-Glo luminescent cell viability assay, A375; settings: Homo sapiens, A-375; for viability at 4 µM: A375, compound at 4 μM; for viability at 4 µM / viability at 10 µM: 72 h; for viability at 10 µM: A375, compound at 10 μM; for EC50: A375 cell line, 72 h incubation, CellTiter-Glo, read-out: EC50, growth inhibition of A375
How it was run: (§2)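 72 h compound exposure, 37 °C, 5% CO2, 10% FBS medium; ATP luminescence read after 30 min RT equilibration. Viability as % of H2O/DMSO diluent control; EC50 = dose giving 50% of control signal. Duplicate points minimum.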

[3] = system: HCT-116 (colorectal carcinoma) cell line; assay: CellTiter-Glo luminescent cell viability assay, HCT-116; settings: Homo sapiens; for viability at 4 µM: HCT-116, compound at 4 μM; for viability at 4 µM / viability at 10 µM: 72 h; for viability at 10 µM: HCT-116, compound at 10 μM; for EC50: HCT-116 cell line, 72 h incubation, CellTiter-Glo, read-out: EC50, growth inhibition of HCT-116
How it was run: as §2

[4] = system: Huh7 (hepatocellular carcinoma) cell line; assay: CellTiter-Glo luminescent cell viability assay, Huh7; settings: Homo sapiens, Huh-7; for viability at 4 µM: Huh7, compound at 4 μM; for viability at 4 µM / viability at 10 µM: 72 h; for viability at 10 µM: Huh7, compound at 10 μM; for EC50: Huh7 cell line, 72 h incubation, CellTiter-Glo, read-out: EC50, growth inhibition of Huh7
How it was run: as §1

[5] = system: 786-O (renal adenocarcinoma) cell line; assay: CellTiter-Glo luminescent cell viability assay, 786-O; settings: Homo sapiens, 786-0; for viability at 4 µM / viability at 10 µM: 786-O, 72 h; for viability at 4 µM: compound at 4 μM; for viability at 10 µM: compound at 10 μM; for EC50: 786-O cell line, 72 h incubation, CellTiter-Glo, read-out: EC50, growth inhibition of 786-O
How it was run: as §2

[6] = system: HepG2 (hepatocellular carcinoma) cell line; assay: CellTiter-Glo luminescent cell viability assay, HepG2; settings: Homo sapiens; for viability at 4 µM / viability at 10 µM: HepG2, HepG, 72 h; for viability at 4 µM: compound at 4 μM; for viability at 10 µM: compound at 10 μM; for EC50: HepG2 cell line, 72 h incubation, CellTiter-Glo, read-out: EC50, growth inhibition of HepG2
How it was run: as §1

| EC50 [1] | EC50 [2] | EC50 [3] | EC50 [4] | EC50 [5] | EC50 [6] | SMILES | viability at 4 µM [1] | viability at 10 µM [1] | viability at 4 µM [2] | viability at 10 µM [2] | viability at 4 µM [3] | viability at 10 µM [3] | viability at 4 µM [4] | viability at 10 µM [4] | viability at 4 µM [5] | viability at 10 µM [5] | viability at 4 µM [6] | viability at 10 µM [6] |
| --- | --- | --- | --- | --- | --- | --- | --- | --- | --- | --- | --- | --- | --- | --- | --- | --- | --- | --- |
|  |  |  |  |  |  | N#Cc1c(NCc2ccc(Cl)cc2)nc2ccccc2c1N1CCC(Oc2ccc(Cl)cc2)CC1 [Compound 3226CN, 2-(4-chlorobenzylamino)-3-cyano-4-[4-(4-chlorophenoxy)piperidin-1-yl]quinoline] | 101% | 97.8% | 97.8% | 94.1% | 96.8% | 86.8% | 117% | 109% | 96% | 89.8% | 94% | 82.8% |
|  |  |  |  |  |  | N#Cc1c(NCc2ccc(Cl)cc2)nc2ccccc2c1N1CCC(Oc2cccc(F)c2)CC1 [Compound 3228CN, 2-(4-chlorobenzylamino)-3-cyano-4-[4-(3-fluorophenoxy)piperidin-1-yl]quinoline] | 107% | 100% | 98% | 91.7% | 101% | 85.2% | 117% | 108% | 97.9% | 92.9% | 96.7% | 86.7% |
|  |  |  |  |  |  | COc1ccc(OC2CCCN(c3c(C#N)c(NCc4ccc(Cl)cc4)nc4ccccc34)C2)cc1 (stereo not drawn) [Compound 3232CN, 2-(4-chlorobenzylamino)-3-cyano-4-[3-(4-methoxyphenoxy)piperidin-1-yl]quinoline] | 91.1% | 99.8% | 104% | 99.4% | 93.9% | 82.9% | 98.7% | 90.3% | 79.9% | 73.5% | 79.9% | 72.3% |
|  |  |  |  |  |  | Cc1ccc(OC2CCCN(c3c(C#N)c(NCc4ccc(Cl)cc4)nc4ccccc34)C2)cc1 (stereo not drawn) [Compound 3234CN, 2-(4-chlorobenzylamino)-3-cyano-4-[3-(4-methylphenoxy)piperidin-1-yl]quinoline] | 94.4% | 92% | 107% | 102% | 93.8% | 90.7% | 99.2% | 95.5% | 89.8% | 80.5% | 89.8% |  |
|  |  |  |  |  |  | N#Cc1c(NCc2ccc(Cl)cc2)nc2ccccc2c1N1CCCC(Oc2ccc(F)cc2)C1 (stereo not drawn) [Compound 3238CN, 2-(4-chlorobenzylamino)-3-cyano-4-[3-(4-fluorophenoxy)piperidin-1-yl]quinoline] | 101% | 91.6% | 106% | 102% | 97.8% | 85.1% | 97.7% | 93.7% | 90.7% | 86.1% | 95.9% | 90.8% |
|  |  |  |  |  |  | N#Cc1c(NCc2ccc(Cl)cc2)nc2ccccc2c1N1CCCC(Oc2cccc(F)c2)C1 (stereo not drawn) [Compound 3240CN, 2-(4-chlorobenzylamino)-3-cyano-4-[3-(3-fluorophenoxy)piperidin-1-yl]quinoline] | 106% | 113% | 95.6% | 94.9% | 99.4% | 95.8% | 123% | 113% | 98.2% | 94.5% | 97% |  |
|  |  |  |  |  |  | Cc1ccc(Nc2nc3ccccc3c(N3CCC(NC(C)(C)C)CC3)c2C#N)cc1 [Compound 3248CN, 2-(4-methylphenylamino)-3-cyano-4-[4-(tert-butylamino)piperidin-1-yl]quinoline] | 88.5% | 53.4% | 79.2% | 0.4% | 88.9% | 0.5% | 89.3% | 56.3% | 100% | 27.7% | 109% | 73.1% |
| 0.5 to 5 µM | 0.5 to 5 µM | 0.5 to 5 µM | 0.5 to 5 µM | 0.5 to 5 µM | 0.5 to 5 µM | CC(C)(C)NC1CCN(c2c(C#N)c(Nc3ccc(Cl)cc3)nc3ccccc23)CC1 [Compound 3258CN, 2-(4-chlorophenylamino)-3-cyano-4-[4-(tert-butylamino)piperidin-1-yl]quinoline] | 79.8% | 1% | 9.7% | 0.8% | 0.7% | 0.6% | 73.8% | 1.8% | 4.4% | 0.7% | 44.3% | 0.8% |
|  |  |  |  |  |  | CC(C)(C)NC1CCN(c2c(C#N)c(Nc3ccc(OC(F)(F)F)cc3)nc3ccccc23)CC1 [Compound 3266CN, 2-[4-(trifluoromethyloxy)phenylamino]-3-cyano-4-[4-(tert-butylamino)piperidin-1-yl]quinoline] | 91.4% | 50.3% | 48.1% | 21.1% | 17.7% | 4.7% | 78% | 49.1% | 28.1% | 3.8% | 60.6% | 24.9% |
| 0.5 to 5 µM | 0.5 to 5 µM |  | 5 to 10 µM | 5 to 10 µM | 0.5 to 5 µM | Cn1ncnc1Nc1nc2ccccc2c(N2CCC(NC(C)(C)C)CC2)c1C#N [Compound 3270CN, 2-[(1-methyl-1H-1,2,4-triazol-5-yl)amino]-3-cyano-4-[4-(tert-butylamino)piperidin-1-yl]quinoline] | 33.2% | 1% | 49.2% | 31% | 47.4% | 6.3% | 79.6% | 32.3% | 52.6% | 34.7% | 37.5% | 24.1% |
| 0.5 to 5 µM | 0.5 to 5 µM | 0.5 to 5 µM | 0.5 to 5 µM | 0.5 to 5 µM | 0.5 to 5 µM | Cc1cc(C)nc(Nc2ccc(Nc3nc4ccccc4c(N4CCC(NC(C)(C)C)CC4)c3C#N)cc2)n1 [Compound 3276CN, 2-{4-[(4,6-dimethylpyrimidin-2-yl)amino]phenylamino}-3-cyano-4-[4-(tert-butylamino)piperidin-1-yl]quinoline] | 51.9% | 1% | 2.9% | 1% | 0.9% | 0.9% | 41.2% | 1% | 4.5% | 0.9% | 38.5% | 0.9% |
